Results on twelve compounds are retold here after patent US10689362B2, “Quinoxaline compounds as type III receptor tyrosine kinase inhibitors” (Development Center for Biotechnology, priority 2016, dated 2020).

The target of one experiment is FLT3 kinase (Homo sapiens (Human), UniProt P36888). Description: FLT3 kinase assay (radiometric). To be noted: bound. The class given is biochemical. Summed up:
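Recombinant FLT3 (5 ng) phosphorylating poly(Glu4:Tyr1) (2 μg) with 10 μM ATP plus [^33P]-ATP in MOPS pH 7.0 buffer, 4% DMSO final, 60 min at 30° C. Reaction stopped with phosphoric acid, filter-captured and scintillation-counted; IC50 derived from dose-response.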

The next experiment addresses CSF-1R kinase (Homo sapiens (Human), UniProt P07333). Description: CSF-1R kinase assay (AlphaScreen). To be noted: class symbol. The format is biochemical. How it is done:
Inhibition of CSF-1R kinase activity by a test compound disclosed herein was estimated by AlphaScreen (PerkinElmer). […] Reactions were incubated at 30° C. for 45 min and stopped by adding 5 μL of 50 mM EDTA. Analysis of resulting product using an AlphaScreen kit, and counted with Enspire Alpha (PerkinElmer). […] The IC50 values of quinoxaline compounds of this invention against CSF-1R kinase were determined using the GraphPad Prism 5 software.

Experiment [1] deals with THP-1 human acute monocytic leukemia cell harboring NRAS G12D mutation. Description: THP-1 cell proliferation assay (counter screen, CellTiter-96). The class given is cell-based. The note with it: Cytotoxicity, THP-1 cells (counter screen), 72 hours. In outline:
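THP-1 cells, RTK-independent owing to NRAS G12D, seeded at 5000/well, incubated overnight at 37 °C/5% CO2, then exposed to increasing compound concentrations for 72 h. CellTiter96 AQueous One reagent added for 4 h; viability from absorbance at 490 nm.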
In general terms: A counterscreen serves to expose hits that act by an unwanted route or on another target.

The subject of experiment [2] is osteoclast precursors (osteoclast differentiation). The experiment is described as follows: Osteoclast tartrate-resistant acid phosphatase assay. The format is cell-based. To be noted: 168 h, at 1 μM treatment, 7 days, RANKL and M-CSF, read-out: inhibition activity against osteoclast differentiation. Summed up:
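Differentiation inhibition was scored at 1 μM compound in duplicate, using supernatant TRAP activity read at 550 nm with an acid phosphatase kit.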

The subject of experiment [3] is Kasumi-1 human acute myeloid leukemia cell with c-KIT N822K activating mutation. Description: Kasumi-1 cell proliferation assay (CellTiter-96). The note with it: Cytotoxicity, Kasumi-1 cells, 72 hours. The format is cell-based. In outline: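 Kasumi-1 cells, seeded at 64000 cells/well and incubated overnight at 37 °C, were exposed to increasing compound concentrations for 72 h. Viability was measured by CellTiter96 AQueous One reagent (4 h) and absorbance at 490 nm.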

The subject of experiment [4] is CSF-1-dependent M-NFS-60 mouse myeloid leukemia cell. The experiment is described as follows: M-NFS-60 cell proliferation assay (CellTiter-96). The class given is cell-based. To be noted: Cytotoxicity, M-NFS-60 cells, 72 hours. In outline:
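CSF-1-dependent M-NFS-60 cells seeded at 2000 cells/well, settled overnight at 37 °C, 5% CO2, then exposed to increasing compound concentrations for 72 h. Viability read by CellTiter 96 AQueous One reagent (4 h) at 490 nm absorbance.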

The target in a further experiment is PDGFRβ kinase (Homo sapiens (Human), UniProt P09619). The experiment is described as follows: PDGFRβ kinase assay (radiometric). The format is biochemical. To be noted: bound. Summed up:
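Radiometric assay: recombinant PDGFRβ with poly(Glu4:Tyr1) in MOPS pH 7.0 buffer containing Mg2+/Mn2+, 10 μM ATP plus [33P]-ATP, and compound at 4% DMSO final. Incubated 60 min at 30° C, stopped with phosphoric acid, filter-captured and scintillation-counted. IC50 from curve fitting.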

The next experiment deals with c-KIT kinase (Homo sapiens (Human), UniProt P10721). Description: c-KIT kinase assay (radiometric). The class given is biochemical. Summed up:
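Recombinant c-Kit (20 ng) with 2 μg Poly-(Glu4:Tyr1) in MOPS pH 7.0 buffer with MgCl2/MnCl2, 10 μM ATP plus [^33P]-ATP, 4% DMSO final, 60 min at 30° C. Stopped with phosphoric acid, filter-captured and scintillation counted; IC50 from curve fit.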

For experiment [5], the system named is MV4-11 human acute myeloid leukemia cell with FLT3-ITD mutation. Description: MV4-11 cell proliferation assay (CellTiter-96). To be noted: Cytotoxicity, MV4-11 cells, 72 hours. The format is cell-based. In outline:
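MV4-11 cells (FLT3-ITD, FLT3-dependent growth) seeded at 6500 cells/well, incubated overnight at 37° C., 5% CO2, then exposed to increasing compound concentrations for 72 hours. Viability read by CellTiter96 AQueous One reagent (4 hours), absorbance at 490 nm.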

As a reminder, the IC50 is the concentration at which inhibition is half-maximal. Low readings indicate greater potency in that assay, high ones weaker potency in that assay. For orientation: inhibition means the share of the control response that was lost under treatment.

Sequence of c-KIT kinase (P10721 26-976): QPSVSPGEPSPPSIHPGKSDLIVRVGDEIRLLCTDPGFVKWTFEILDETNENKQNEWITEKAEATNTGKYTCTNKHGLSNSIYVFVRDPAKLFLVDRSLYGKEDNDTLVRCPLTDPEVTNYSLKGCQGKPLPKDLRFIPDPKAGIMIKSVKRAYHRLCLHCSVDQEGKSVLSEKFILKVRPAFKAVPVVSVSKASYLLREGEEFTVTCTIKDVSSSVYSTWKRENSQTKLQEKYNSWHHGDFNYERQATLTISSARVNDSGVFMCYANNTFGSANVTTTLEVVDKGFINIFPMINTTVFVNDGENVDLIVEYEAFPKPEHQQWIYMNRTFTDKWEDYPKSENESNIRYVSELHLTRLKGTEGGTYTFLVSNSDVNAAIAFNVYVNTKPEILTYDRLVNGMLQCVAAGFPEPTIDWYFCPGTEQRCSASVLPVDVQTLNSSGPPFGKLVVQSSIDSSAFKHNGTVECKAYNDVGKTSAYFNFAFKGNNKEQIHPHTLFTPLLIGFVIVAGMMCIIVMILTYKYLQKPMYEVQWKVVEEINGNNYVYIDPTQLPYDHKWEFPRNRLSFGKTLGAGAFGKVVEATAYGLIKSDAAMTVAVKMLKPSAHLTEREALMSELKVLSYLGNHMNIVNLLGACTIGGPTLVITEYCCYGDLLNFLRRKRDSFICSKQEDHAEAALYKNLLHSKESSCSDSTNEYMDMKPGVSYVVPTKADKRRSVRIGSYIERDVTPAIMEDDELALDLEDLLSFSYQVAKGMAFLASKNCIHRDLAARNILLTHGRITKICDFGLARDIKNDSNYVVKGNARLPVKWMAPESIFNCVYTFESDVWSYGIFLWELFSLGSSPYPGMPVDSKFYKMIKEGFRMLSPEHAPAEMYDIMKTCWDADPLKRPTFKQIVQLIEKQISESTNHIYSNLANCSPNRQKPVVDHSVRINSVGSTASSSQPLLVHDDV
Sequence of CSF-1R kinase (P07333 20-972): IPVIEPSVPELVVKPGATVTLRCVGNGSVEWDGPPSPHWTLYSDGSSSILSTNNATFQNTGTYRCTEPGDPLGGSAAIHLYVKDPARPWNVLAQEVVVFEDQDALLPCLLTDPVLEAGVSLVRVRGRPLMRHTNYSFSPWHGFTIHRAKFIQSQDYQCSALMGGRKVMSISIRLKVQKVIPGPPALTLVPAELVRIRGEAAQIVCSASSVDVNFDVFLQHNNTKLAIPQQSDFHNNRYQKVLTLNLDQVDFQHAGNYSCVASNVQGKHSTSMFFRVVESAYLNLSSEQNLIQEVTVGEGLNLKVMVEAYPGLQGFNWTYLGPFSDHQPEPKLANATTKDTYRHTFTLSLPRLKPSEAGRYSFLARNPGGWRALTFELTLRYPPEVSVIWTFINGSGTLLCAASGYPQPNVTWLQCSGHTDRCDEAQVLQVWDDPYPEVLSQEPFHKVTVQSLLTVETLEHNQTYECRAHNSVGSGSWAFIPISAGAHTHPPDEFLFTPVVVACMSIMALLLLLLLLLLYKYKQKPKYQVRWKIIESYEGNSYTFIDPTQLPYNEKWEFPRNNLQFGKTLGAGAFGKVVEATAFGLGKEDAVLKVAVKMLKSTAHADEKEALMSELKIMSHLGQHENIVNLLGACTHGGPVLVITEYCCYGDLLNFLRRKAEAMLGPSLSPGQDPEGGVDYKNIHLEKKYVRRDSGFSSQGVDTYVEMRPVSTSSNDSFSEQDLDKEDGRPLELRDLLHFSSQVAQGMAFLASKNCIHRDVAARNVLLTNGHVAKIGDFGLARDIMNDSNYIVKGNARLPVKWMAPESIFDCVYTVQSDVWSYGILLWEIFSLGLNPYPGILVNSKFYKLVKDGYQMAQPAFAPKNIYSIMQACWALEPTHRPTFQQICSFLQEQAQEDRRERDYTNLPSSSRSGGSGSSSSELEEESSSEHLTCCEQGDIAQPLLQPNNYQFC
Sequence of PDGFRβ kinase (P09619 33-1106): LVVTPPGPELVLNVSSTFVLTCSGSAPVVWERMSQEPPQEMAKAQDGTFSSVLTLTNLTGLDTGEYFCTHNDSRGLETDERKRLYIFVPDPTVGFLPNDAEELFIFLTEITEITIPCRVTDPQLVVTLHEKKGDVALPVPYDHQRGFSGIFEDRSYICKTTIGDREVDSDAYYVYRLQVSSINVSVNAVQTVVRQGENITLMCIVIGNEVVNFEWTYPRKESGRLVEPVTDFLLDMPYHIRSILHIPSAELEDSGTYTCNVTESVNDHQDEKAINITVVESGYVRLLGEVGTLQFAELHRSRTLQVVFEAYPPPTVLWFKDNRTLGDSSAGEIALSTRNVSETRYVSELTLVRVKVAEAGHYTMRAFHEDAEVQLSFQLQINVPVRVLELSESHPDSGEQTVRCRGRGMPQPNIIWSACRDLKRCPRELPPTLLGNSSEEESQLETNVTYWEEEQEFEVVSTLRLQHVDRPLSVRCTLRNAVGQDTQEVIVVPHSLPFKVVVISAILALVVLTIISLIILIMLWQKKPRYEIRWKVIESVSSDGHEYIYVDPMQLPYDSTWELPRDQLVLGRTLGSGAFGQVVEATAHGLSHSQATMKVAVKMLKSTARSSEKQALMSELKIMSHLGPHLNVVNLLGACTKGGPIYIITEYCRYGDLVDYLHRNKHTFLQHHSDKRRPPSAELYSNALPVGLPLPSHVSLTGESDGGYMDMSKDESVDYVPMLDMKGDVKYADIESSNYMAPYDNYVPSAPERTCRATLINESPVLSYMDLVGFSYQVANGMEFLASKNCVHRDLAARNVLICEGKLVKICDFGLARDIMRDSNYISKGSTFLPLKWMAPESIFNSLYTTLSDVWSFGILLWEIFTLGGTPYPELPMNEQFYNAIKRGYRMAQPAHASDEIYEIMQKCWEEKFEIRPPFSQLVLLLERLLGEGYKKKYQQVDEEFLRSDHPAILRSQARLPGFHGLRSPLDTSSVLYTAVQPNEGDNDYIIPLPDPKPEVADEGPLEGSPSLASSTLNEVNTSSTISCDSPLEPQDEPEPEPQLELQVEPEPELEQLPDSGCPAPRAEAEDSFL
Sequence of FLT3 kinase (P36888 27-993): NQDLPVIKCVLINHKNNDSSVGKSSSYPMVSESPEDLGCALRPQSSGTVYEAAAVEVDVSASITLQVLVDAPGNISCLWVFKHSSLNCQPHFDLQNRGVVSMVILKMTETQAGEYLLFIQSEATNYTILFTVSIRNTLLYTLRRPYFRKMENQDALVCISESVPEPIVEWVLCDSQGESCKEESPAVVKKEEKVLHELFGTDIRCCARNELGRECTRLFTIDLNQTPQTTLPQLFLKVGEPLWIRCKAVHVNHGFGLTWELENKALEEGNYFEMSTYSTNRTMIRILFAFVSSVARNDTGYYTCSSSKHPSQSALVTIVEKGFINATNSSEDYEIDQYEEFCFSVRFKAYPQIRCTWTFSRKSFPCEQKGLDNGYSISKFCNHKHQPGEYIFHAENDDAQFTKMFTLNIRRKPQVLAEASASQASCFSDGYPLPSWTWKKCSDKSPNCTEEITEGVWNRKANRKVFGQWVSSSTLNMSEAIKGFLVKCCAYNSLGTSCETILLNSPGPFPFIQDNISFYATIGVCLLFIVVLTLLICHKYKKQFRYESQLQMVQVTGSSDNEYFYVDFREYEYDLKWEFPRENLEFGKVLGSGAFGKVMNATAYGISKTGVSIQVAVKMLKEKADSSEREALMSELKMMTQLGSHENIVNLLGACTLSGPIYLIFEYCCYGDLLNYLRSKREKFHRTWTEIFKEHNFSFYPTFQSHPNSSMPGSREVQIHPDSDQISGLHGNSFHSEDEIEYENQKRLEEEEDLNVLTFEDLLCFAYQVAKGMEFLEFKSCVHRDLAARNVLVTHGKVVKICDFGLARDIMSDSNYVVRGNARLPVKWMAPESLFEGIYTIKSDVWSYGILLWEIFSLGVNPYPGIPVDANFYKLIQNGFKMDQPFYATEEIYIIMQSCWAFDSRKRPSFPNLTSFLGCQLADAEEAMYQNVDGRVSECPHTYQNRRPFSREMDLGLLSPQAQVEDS

For the compound `COc1cc(Nc2ccc3ncc(N4CCOCC4)nc3c2C#N)ccc1OCc1cnn(CCF)c1` [Example 131, 6-((4-((1-(2-fluoroethyl)-1H-pyrazol-4-yl)methoxy)-3-methoxyphenyl)amino)-3-morpholinoquinoxaline-5-carbonitrile], the 50% inhibitory concentration (IC50) on FLT3 kinase was above 1000 nM; at CSF-1R kinase it was below 100 nM; in experiment [1] it was above 10000 nM; in experiment [3], above 10000 nM; in [4], below 300 nM; against PDGFRβ kinase, above 1000 nM. Also, the IC50 against c-KIT kinase (class symbol) was 300 to 1000 nM; in [5], above 10000 nM. The inhibition at 1 µM in experiment [2] was above 50%.

On to `C=C(C)c1cnc2ccc(Nc3ccc(OCc4ccc(OC)cc4)c(OC)c3)cc2n1` [Example 106, N-(3-methoxy-4-((4-methoxybenzyl)oxy)phenyl)-3-(prop-1-en-2-yl)quinoxalin-6-amine], for which the half-inhibitory concentration (IC50) at FLT3 kinase was above 1000 nM; against CSF-1R kinase, below 100 nM; in experiment [1], above 10000 nM; in [3], 1000 to 10000 nM; in experiment [4], 300 to 1000 nM; at PDGFRβ kinase, above 1000 nM. Also, the IC50 is 300 to 1000 nM against c-KIT kinase (class symbol) and above 10000 nM in experiment [5]. Also, in [2], the inhibition at 1 µM is above 50%.

With `COc1cc(Nc2ccc3ncc(N4CCOCC4)nc3c2C#N)ccc1OCc1ccc2c(c1)OCO2` [Example 81, 6-((4-(benzo[d][1,3]dioxol-5-ylmethoxy)-3-methoxyphenyl)amino)-3-morpholinoquinoxaline-5-carbonitrile], the IC50 at FLT3 kinase was above 1000 nM; against CSF-1R kinase it was below 100 nM; in experiment [1] it was above 10000 nM; in experiment [3] it was above 10000 nM; in experiment [4], below 300 nM; on PDGFRβ kinase it was above 1000 nM. Further, the results for the half-inhibitory concentration (IC50) (against c-KIT kinase (class symbol); in experiment [5]) were 300 to 1000 nM and above 10000 nM, respectively. The inhibition at 1 µM in experiment [2] is above 50%.

`COc1cc(Nc2ccc3ncc(N4CCOCC4)nc3c2C(N)=O)ccc1OCc1ccc(C)nc1` [Example 135, 6-((3-methoxy-4-((6-methylpyridin-3-yl)methoxy)phenyl)amino)-3-morpholinoquinoxaline-5-carboxamide]: the IC50 is above 1000 nM at FLT3 kinase; below 100 nM against CSF-1R kinase; above 10000 nM in experiment [1]; below 300 nM in [3]; below 300 nM in experiment [4]; above 1000 nM at PDGFRβ kinase. Further, the IC50 at c-KIT kinase (class symbol) was below 100 nM; in experiment [5], 1000 to 10000 nM. In addition, the inhibition at 1 µM in experiment [2] is above 50%.

As for `COc1ccc(COc2ccc(Nc3ccc4ncc(N5CCC(COC(C)=O)CC5)nc4c3C#N)cc2OC)cc1` [Example 71, (1-(8-cyano-7-((3-methoxy-4-((4-methoxybenzyl)oxy)phenyl)amino)quinoxalin-2-yl)piperidin-4-yl)methyl acetate], the half-inhibitory concentration (IC50) at FLT3 kinase was above 1000 nM; at CSF-1R kinase, below 100 nM; in experiment [1], above 10000 nM; in experiment [3], below 300 nM; in experiment [4] it was below 300 nM; against PDGFRβ kinase it was above 1000 nM. The IC50 is below 100 nM against c-KIT kinase (class symbol) and above 10000 nM in experiment [5]. The inhibition at 1 µM in experiment [2] is above 50%.

For `COc1cc(Nc2ccc3ncc(N4CCNCC4)nc3c2C#N)ccc1OCc1ccc(C)nc1` [Example 67, 6-((3-methoxy-4-((6-methylpyridin-3-yl)methoxy)phenyl)amino)-3-(piperazin-1-yl)quinoxaline-5-carbonitrile], the IC50 is above 1000 nM against FLT3 kinase; below 100 nM against CSF-1R kinase; 1000 to 10000 nM in experiment [1]; 1000 to 10000 nM in experiment [3]; below 300 nM in [4]; above 1000 nM on PDGFRβ kinase. Moreover, the IC50 against c-KIT kinase (class symbol) was below 100 nM; in experiment [5] it was 1000 to 10000 nM. The inhibition at 1 µM in experiment [2] was above 50%.

Take `COc1cc(Nc2ccc3ncc(N4CCOCC4)nc3c2C#N)ccc1OCc1cnn(C)c1` [Example 105, 6-((3-methoxy-4-((1-methyl-1H-pyrazol-4-yl)methoxy)phenyl)amino)-3-morpholinoquinoxaline-5-carbonitrile]: the half-inhibitory concentration (IC50) was above 1000 nM at FLT3 kinase; below 100 nM against CSF-1R kinase; above 10000 nM in experiment [1]; 300 to 1000 nM in experiment [3]; below 300 nM in [4]; above 1000 nM against PDGFRβ kinase. Also, the half-inhibitory concentration (IC50) on c-KIT kinase (class symbol) was below 100 nM; in [5] it was 1000 to 10000 nM. Further, in experiment [2], the inhibition at 1 µM is above 50%.

For the compound `COc1ccc(COc2ncc(Nc3ccc4ncc(N5CCOCC5)nc4c3C#N)cc2OC)cn1` [Example 144, 6-((5-methoxy-6-((6-methoxypyridin-3-yl)methoxy)pyridin-3-yl)amino)-3-morpholinoquinoxaline-5-carbonitrile], the half-inhibitory concentration (IC50) against FLT3 kinase was above 1000 nM; against CSF-1R kinase it was below 100 nM; in experiment [1], above 10000 nM; in experiment [3] it was above 10000 nM; in [4] it was below 300 nM; against PDGFRβ kinase, above 1000 nM. The half-maximal inhibitory concentration (IC50) against c-KIT kinase (bound) is above 1000 nM; in experiment [5], above 10000 nM. The inhibition at 1 µM in [2] is above 50%.

With `COc1cc(Nc2ccc3ncc(N4CCOCC4)nc3c2C#N)ccc1OCc1ccc(C#N)cc1` [Example 64, 6-((4-((4-cyanobenzyl)oxy)-3-methoxyphenyl)amino)-3-morpholinoquinoxaline-5-carbonitrile], the half-maximal inhibitory concentration (IC50) against FLT3 kinase is above 1000 nM; against CSF-1R kinase, below 100 nM; in experiment [1], above 10000 nM; in [3] it was 300 to 1000 nM; in experiment [4], below 300 nM; on PDGFRβ kinase, above 1000 nM. In addition, the half-maximal inhibitory concentration (IC50) at c-KIT kinase (class symbol) is below 100 nM; in experiment [5], 1000 to 10000 nM. Further, the inhibition at 1 µM in [2] was above 50%.

For the compound `COc1ccc(COc2ccc(Nc3ccc4ncc(N5CCN(CCOC(C)=O)CC5)nc4c3C#N)cc2OC)cn1` [Example 74, 2-(4-(8-cyano-7-((3-methoxy-4-((6-methoxypyridin-3-yl)methoxy)phenyl)amino)quinoxalin-2-yl)piperazin-1-yl)ethyl acetate], the 50% inhibitory concentration (IC50) was above 1000 nM on FLT3 kinase; below 100 nM against CSF-1R kinase; above 10000 nM in experiment [1]; 300 to 1000 nM in experiment [3]; below 300 nM in [4]; above 1000 nM against PDGFRβ kinase. For the same compound, the IC50 against c-KIT kinase (class symbol) was below 100 nM; in [5], 1000 to 10000 nM. In addition, in [2], the inhibition at 1 µM is above 50%.

With `COc1ccc(COc2ccc(Nc3ccc4ncc(N5CCN(C6CC6)CC5)nc4c3C#N)cc2OC)cn1` [Example 118, 3-(4-cyclopropylpiperazin-1-yl)-6-((3-methoxy-4-((6-methoxypyridin-3-yl)methoxy)phenyl)amino)quinoxaline-5-carbonitrile], the 50% inhibitory concentration (IC50) against FLT3 kinase is above 1000 nM; at CSF-1R kinase, below 100 nM; in experiment [1], above 10000 nM; in experiment [3] it was 1000 to 10000 nM; in experiment [4], below 300 nM; at PDGFRβ kinase it was above 1000 nM. The results for the IC50 (on c-KIT kinase (class symbol); in experiment [5]) were 100 to 300 nM and above 10000 nM, respectively. Further, in experiment [2], the inhibition at 1 µM was above 50%.

As for `COc1cc(Nc2ccc3ncc(N4CCOCC4)nc3c2C#N)ccc1OCc1ccc(C2CC2)nc1` [Example 120, 6-((4-((6-cyclopropylpyridin-3-yl)methoxy)-3-methoxy-phenyl)amino)-3-morpholinoquinoxaline-5-carbonitrile], the IC50 is above 1000 nM against FLT3 kinase; below 100 nM at CSF-1R kinase; above 10000 nM in [1]; below 300 nM in experiment [3]; below 300 nM in experiment [4]; above 1000 nM against PDGFRβ kinase. For the same compound, the 50% inhibitory concentration (IC50) at c-KIT kinase (class symbol) was below 100 nM; in experiment [5] it was above 10000 nM. Besides, the inhibition at 1 µM in [2] was above 50%.
